Results from PMC10141604, “Small-Molecule Inhibition of Androgen Receptor Dimerization as a Strategy against Prostate Cancer” (ACS Central Science, 2023).

Tests used:
AR LBP = biological target: T1, AR LBP (Rattus norvegicus, UniProt P15207); experiment: Competitive ligand-binding assay (PolarScreen AR competitor assay)
T1 construct: purchased Invitrogen Life Technologies A15880
Protocol: Competitive Ligand Binding Assay
The binding affinities of M17 and M17-B15 to the LBP of AR LBD were determined
using PolarScreen™ Androgen Receptor Competitor Assay Kit (#A15880, Invitrogen Life
Technologies) according to the user manual. […]

[1] = system: secreted PSA from LNCaP cells; experiment: Secreted prostate-specific antigen (PSA) assay; type: cell-based
Protocol: Secreted Prostate-Specific Antigen (PSA) Assay
After the AR transcriptional activity assay was completed, 300 μl of the media
supernatant including the secreted PSA was measured using […]® 2000 XPi
Immunoassay System (Siemens Ltd., Erlangen, Germany). […]

AR = biological target: T2, AR (Homo sapiens, UniProt P10275, T878A); experiment: AR transcriptional activity assay (LNCaP-ARR2PB-eGFP cells); type: cell-based; settings: 5 nM DHT
T2 construct: The cells of LNCaP-ARR2PB-eGFP were; endogenous in cells; host or cells: LNCaP-ARR2PB-eGFP
T2 sequence (P10275 1-920 T878A): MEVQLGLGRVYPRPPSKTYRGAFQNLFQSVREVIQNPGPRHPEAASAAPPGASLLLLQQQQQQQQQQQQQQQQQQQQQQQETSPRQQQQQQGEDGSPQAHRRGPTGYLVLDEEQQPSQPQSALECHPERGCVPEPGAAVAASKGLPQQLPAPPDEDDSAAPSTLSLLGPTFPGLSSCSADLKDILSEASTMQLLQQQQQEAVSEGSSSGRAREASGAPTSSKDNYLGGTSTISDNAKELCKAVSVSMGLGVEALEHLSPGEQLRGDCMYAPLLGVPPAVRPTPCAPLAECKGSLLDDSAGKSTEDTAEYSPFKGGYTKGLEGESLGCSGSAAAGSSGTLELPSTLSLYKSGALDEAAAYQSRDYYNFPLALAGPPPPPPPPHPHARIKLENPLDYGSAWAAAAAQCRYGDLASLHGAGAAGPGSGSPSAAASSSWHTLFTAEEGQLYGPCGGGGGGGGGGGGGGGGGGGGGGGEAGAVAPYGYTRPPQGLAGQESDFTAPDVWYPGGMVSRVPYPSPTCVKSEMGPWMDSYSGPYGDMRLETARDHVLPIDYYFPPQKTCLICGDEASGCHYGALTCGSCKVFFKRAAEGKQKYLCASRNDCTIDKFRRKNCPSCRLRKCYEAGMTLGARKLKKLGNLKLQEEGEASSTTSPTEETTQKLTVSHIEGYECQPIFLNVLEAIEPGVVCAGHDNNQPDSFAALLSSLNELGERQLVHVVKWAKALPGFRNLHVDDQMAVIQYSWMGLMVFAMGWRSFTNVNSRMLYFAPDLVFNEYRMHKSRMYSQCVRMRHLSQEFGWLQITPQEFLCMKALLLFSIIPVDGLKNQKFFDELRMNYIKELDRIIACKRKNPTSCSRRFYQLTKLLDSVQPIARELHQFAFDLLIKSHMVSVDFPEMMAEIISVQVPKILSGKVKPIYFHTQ
Protocol: University, Hangzhou, China), respectively. […]
AR Transcriptional Activity Assay
The AR transcriptional activities were determined using the constructed LNCaP-ARR2PB-eGFP cell as previously reported.11, 12 The cells of LNCaP-ARR2PB-eGFP were […]
by seeding into a 96 -well plate (3.5× 10^4 cells/well) for 1 day incubation at 37 °C. Then, the cells were treated with 5 nM DHT and various concentrations of compounds (10 μM […]
the fluorescence intensities were determined using a Synergy H1 microplate reader

NIH-3T3 = experiment: MTT cell viability assay, NIH-3T3; type: cell-based, murine; settings: 72 h
Protocol: (§1) 3-(4,5-dimethythiazol-2-yl)-2,5-diphenyl-2-H-tetrazolium bromide (MTT) colorimetric assay was employed to investigate cell viability. Cells were seeded into 96-well plates with 2-5× 10^3 cells per well (5× 10^3 cells/well for LNCaP, 22RV1, NIH-3T3, GES-1, Chang, […]
(§2) NCI-H1299, U2OS, U87) for 1 day incubation at 37 °C. Then, the cells were treated with various concentrations of compounds (22.86 nM - 50 μM) and incubated for 72 h. Then, 10 μl MTT (5 mg/ml) was added into each well and incubated for 4 h. Afterwards, 100 μl of triplex 10% SDS-0.1% HCl-phosophate-buffered saline (PBS) solutions was added into each well and incubated for overnight. The absorbance at 570 nm was measured (Eon, Bioteck, Winooski, VT). […]

LNCaP = experiment: MTT cell viability assay, LNCaP; type: cell-based; settings: 72 h
Protocol: as §1, §2

T1 sequence (P15207 651-882 limits assumed): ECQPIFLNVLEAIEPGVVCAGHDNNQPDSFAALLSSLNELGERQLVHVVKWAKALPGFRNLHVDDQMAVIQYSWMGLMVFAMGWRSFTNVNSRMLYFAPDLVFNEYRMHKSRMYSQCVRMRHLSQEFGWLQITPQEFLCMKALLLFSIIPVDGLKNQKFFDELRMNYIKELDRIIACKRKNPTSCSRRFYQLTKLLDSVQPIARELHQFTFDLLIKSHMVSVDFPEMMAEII

- binding to the conventional LBP (AR LBP): excluded
- IC50 (AR; LNCaP-ARR2PB-eGFP cells, 3 days): 950 ± 390 nM
- inhibition at 10 µM (AR; at 10 μM): 92.7%
Compound: CC(=O)Cc1nsc(NC(=O)c2cc(-c3ccc(Cl)c(Cl)c3)oc2C)n1 [Compound M17]
- inhibition of the secretion of PSA [1]: dose-dependently inhibits
- cytotoxicity against NIH-3T3 (NIH-3T3): negligible cytotoxicity
- inhibition of LNCaP viability (LNCaP): dose-dependent manner in the inhibition
